Laboratory results reported in patent publication US7189701B1, “Tetrapeptide stimulating functional activity of neurons pharmacological agent based thereon and method of use thereof” (Sankt-Petersburgskaya Obschestvennaya Organizatsiya …, priority 1999, dated 2007).
Residues, ends and D or L forms follow the SMILES beside them.

Key:
intact white mice = assay: Conditioned reflex of passive avoidance (CRPA) in intact mice; type: in vivo; settings: for Trained animals (%): i.p. 60 min. before the training
Procedure: (§1) Nootropic activity of L-Ala-L-Glu-L-Asp-L-Pro tetrapeptide was studied with the application of the conditioned reflex of passive avoidance (CRPA) in the intact animals and under the conditions of amnestic impacts (electroconvulsive treatment and ethanol intoxication).
(§2) The experiments were carried out on male mice weighing 20 to 24 g. For each animal the period of stay in dark and lighted chamber departments was registered during 2 min. before the training. […] The animals were trained by means of applying an electric pain stimulus in the preferred dark department, which lasted until the animal left this department. L-Ala-L-Glu-L-Asp-L-Pro tetrapeptide was introduced intraperitoneally 60 min. before the training. Testing was performed in 2 and 24 hours after the training. The period the animal stayed in the dark and lighted chamber departments and the number of animals not entering the dark department (“educated” animals) were recorded.

rats = assay: Serotonin metabolism in the brain, model of electrically induced pain stress; type: in vivo
Procedure: In an hour the content of serotonin and its metabolite, 5-oxyindoleacetic acid, was measured in the parietal and posterior frontal regions of the brain.
Compensatory in character, the stimulation of serotonin metabolism diminishes the emotional perception of a pain impact, Natural “drawback” of the said mechanism consists in a quick transition to the state of decompensation. In control (untreated stress) the level of serotonin lowered, while that of 5-oxyindoleacetic acid rose (metabolic depletion phase).

[1] = tested on: rats with severe craniocerebral compression; assay: Acute severe craniocerebral injury model (CRAA learning, rotating pivot); type: in vivo
Procedure: Effect of L-Ala-L-Glu-L-Asp-L-Pro tetrapeptide on repair processes in the brain was assessed on the model of acute severe craniocerebral injury. Dynamics of the CNS functional restoration was defined by the tests on the coordination of movements and muscular tonus of the animals as well as on their abilities for learning and reproduction of conditioned reflex skills.
Severe craniocerebral compression in the rats was caused by a falling lead weight. In 1, 12, 48 and 96 hours the experimental animals were intramuscularly injected with L-Ala-L-Glu-L-Asp-L-Pro tetrapeptide. Animals in the 2nd group received Cerebrolysin.
Abilities for learning and skill reproduction were estimated by the test on the conditioned reflex of active avoidance (CRAA). To estimate the muscular tonus and coordination of movements the rats were rotated on a pivot at an increasing speed. Simultaneously, the retention time was measured.

white unbred male mice = assay: Acute toxicity according to Kerber, single intramuscular administration; type: in vivo
Excerpt: Possible toxic effects of L-Ala-L-Glu-L-Asp-L-Pro (SEQ ID NO:1) tetrapeptide on the organism were studied in compliance with “The rules of preclinical estimation of safety of pharacological agents” (GLP) approved by the Department of State Control on Medicinal Agents and Medical Equipment of the Russian Federation of Dec. 29, 1997.
Objective of the study consisted in defining the tolerable toxic drug doses of the agent, estimating the stage and character of pathologic alterations in various organs and systems and in exploring the correlation between the toxic effects and the dose and duration of the drug application.
Acute toxicity of L-Ala-L-Glu-L-Asp-L-Pro (SEQ ID NO:1) tetrapeptide was determined according to Kerber. The study was performed on 66 white unbred male mice weighing 20 to 23 g kept in vivarium under standard regimen and fed upon standard rations. The animals were randomly divided into 6 equal groups by 11 mice in each. The animals were subject to a single intramuscular administration of 0.25 ml of the preparation in doses 1 mg/kg, 2 mg/kg, 3 mg/kg, 4 mg/kg, 5 mg/kg (several thousand times exceeding the therapeutic dose recommended for clinical trials). The control animals were administered the similar amount of saline.

[2] = tested on: mice subject to ethanol-induced amnestic impact; assay: CRPA in mice subject to ethanol-induced amnestic impact; type: in vivo
Procedure: as §1, §2
Ethanol was administered to the mice orally for 13 days in the form of a 10% solution. Training was held twice: on the 14th day of ethanol administration and in 24 hours after the first training. L-Ala-L-Glu-L-Asp-L-Pro tetrapeptide was administered intraperitoneally 30 min. before the training. Testing was performed in 2 and 24 hours after the first and second training sessions.

cerebral cortex explants = assay: Development of cerebral cortex explants (area index); type: cell-based, chicken embryos
Procedure: The experiments were carried out on 73 cerebral cortex fragments of 10–11 day old chicken embryos. Culture medium for the explants comprised 35% Eagle's solution, 25% foetal calf serum, 35% Henks' solution, 5% chicken embryonic extract. The medium was also added glucose (0.6%), insulin (0.5 IU/ml), penicillin (100 IU/ml), glutamine (2 mM). The cerebral cortex fragments were placed in the said medium and cultivated in Petri dishes in a thermostat at 36.7° C. for 2 days. L-Ala-L-Glu-L-Asp-L-Pro (SEQ ID NO:1) tetrapeptide and Cerebrolysin in concentrations 0.5, 1, 2, 20, 50, 100, 200, 400, 800, 1000 ng/ml were added into the experimental medium. Area index (AI) served as a criterion of biological activity and reflected the ratio of the entire explant area including the growth zone to the initial area of the cortex fragment. Student's t-criterion was applied to assess the significance of differences between the compared mean AI values. AI values were expressed percent. The control AI value was taken for 100%.
The growth zone of the control cortex explants included short axons, neuroglia cells migrating to the periphery and fibroblast-like cells.
Following series of experiments were performed to study the direct effect of the drugs on the cerebral cortex fragments.
Cerebrolysin in various concentrations was added to the culture medium of the cerebral cortex explants of the chicken embryos. […]

[3] = 5 μg/kg, post-stress introduction, measured in an hour
[4] = 1: in 2 hours after the training
[5] = 2: in 24 hours after the training
[6] = 3: in 2 hours after the repeated training
[7] = 4: in 24 hours after the repeated training

For `C[C@H](N)C(=O)N[C@@H](CCC(=O)O)C(=O)N[C@@H](CC(=O)O)C(=O)N1CCC[C@H]1C(=O)O` [L-Ala-L-Glu-L-Asp-L-Pro tetrapeptide, L-Alanyl-L-Glutamyl-L-Aspartyl-L-Proline] (H-AEDP-OH), the “Total period of stay in the dark chamber during 2 min.” value (intact white mice; 2 hours after training) was 11.4 ± 5.2 s, the “Trained animals (%)” value (intact white mice; 2 hours after training) was 86% and the “Total period of stay in the dark chamber during 2 min.” value (intact white mice; 24 hours after training) was 26.6 ± 5.9 s. The “Trained animals (%)” value (intact white mice; 24 hours after training) was 68%, the “content of 5-oxyindoleacetic acid in the brain” value (rats; [3]) was “diminished” and the “content of serotonin in the brain” value (rats; [3]) was “increased”. For the same molecule, the “levels of serotonin and its metabolite” value (rats; intact animals) was “did not induce any changes”, the “time of retention on the rotating pivot relative to control” value ([1]; 48 hours after the trauma) was “twice exceeded that in control” and the “number of trainable animals relative to controls (CRAA)” value ([1]; 96 hours after trauma, intramuscular in 1, 12, 48 and 96 hours) was “twice as much as that in the controls”. For the same molecule, the “indices of learning relative to control” value ([1]; in 30 days) was “higher than those in control”, the acute toxic reactions (white unbred male mice; doses several thousand times exceeding the therapeutic one) was “did not induce any acute toxic reactions” and the “alterations in the general state, behaviour, motional activity, hair and skin integument, physiologic discharges” value (white unbred male mice; single intramuscular 1-5 mg/kg) was “No alterations”. The death of mice (white unbred male mice; single intramuscular 1-5 mg/kg, within 72 hours and in 14 days) was “none of the mice in either of the groups died”, the “Total period of stay in the dark chamber” value [2, 4] was 47.8 ± 5.7 s and the “Trained animals (%)” value [2, 4] was 13%. The “Total period of stay in the dark chamber” value [2, 5] was 41.6 ± 5.8 s, the “Trained animals (%)” value [2, 5] was 31% and the “Total period of stay in the dark chamber” value [2, 6] was 13.7 ± 5.7 s. For the same molecule, the “Trained animals (%)” value [2, 6] was 77%, the “Total period of stay in the dark chamber” value [2, 7] was 7.6 ± 5.7 s and the “Trained animals (%)” value [2, 7] was 86%. The “increase in the explant area index (AI) in comparison with control” value (cerebral cortex explants; 20 ng/ml) was 40±7% and the “concentration stimulating cultivated cortical fragments” value (cerebral cortex explants; effective concentration) was 20 ng/mL.
